The text below walks through data of patent US20100311726A1, “REDUCTION OF BETA-AMYLOID LEVELS BY TREATMENT WITH THE SMALL MOLECULE DIFFERENTIATION-INDUCING FACTOR” (priority 2007, published 2010).

Each structure is given as a SMILES string.

For assay [1], the system named is CHO cells. Put plainly: Cell proliferation assay (haemocytometer counts). The format is cell-based, Chinese Hamster. From the text:
For proliferation assays, 1×10^4 cells were deposited into 24-well plates and treated with vehicle (ethanol or DMSO) or with various amounts of DIF-1 or DIF-3 for a period of 4 days. Cells were harvested after each day by trypsin/EDTA treatment, stained with an equal volume of 0.05% Trypan blue and enumerated in triplicate twice using a haemocytometer. Dead cells are stained blue, but live cells with intact cell membranes are not coloured. Data represents the mean cell number±the standard deviation for at least 3 separate experiments.
We therefore assessed the dose-dependent anti-proliferative effect of DIF-1 on normal (non-transformed) CHO cells (FIG. 1A). Briefly, CHO cells were seeded on a 6-well plate (10,000 cells/well) and were incubated with 25 μM DIF-1. Cells were harvested by the trypsin/EDTA treatment at the times indicated and counted with a haemocytometer. […] Therefore, for this study we only analyzed the effect of DIF-1 between 18 and 20 hours.

The subject of assay [2] is Aβ40. Put plainly: Secreted Aβ40 sandwich ELISA of conditioned media. The class given is cell-based, human. The method, then: The levels of secreted Aβ from CHO-7W cells stably overexpressing APP^751 and CHO-CAB cells that overexpress APP^751 and human BACE1 was quantified by ELISA and viewed by western blot using the monoclonal anti-APP antibody (6E10) that recognizes residues 1-17 of Aβ. Cells (5×10^5) were deposited into 6-well tissue culture dishes in triplicate and allowed to settle and grow for 24 hours. At this time, the media was aspirated and the cells were washed 2× in warm PBS. Fresh media (2 mL) and media supplemented with vehicle or DIF-1 was added to each well. […] Since DIF-1 exerts a cytostatic effect, the cell number was counted for all treatments upon removal of the conditioned media and used to normalize the levels of Aβ. […] The concentration of Aβ40 and Aβ42 was subsequently detected in triplicate using the β-Amyloid 1-40 or 1-42 Colorimetric ELISA kit (Biosource International, Inc.) according to the manufacturer's instructions.
We then looked at what effect this had on the levels of secreted soluble APP and Aβ production. […] The conditioned media was analyzed using anti-APP antibody 6E10 in order to detect total βP levels and sαAPP levels since it recognizes the amino acids 1-17 of Aβ and thus cannot detect sβAPP. […] The blots were analyzed using a phosphorimager. […]
(In general: An ELISA detects its analyte on a solid surface through an enzyme-linked reagent.)

Regarding `CCCCCC(=O)c1c(O)c(Cl)c(OC)c(Cl)c1O` [DIF-1, 1-[3,5-dichloro-2,6-dihydroxy-4-methoxyphenyl]-1-hexanone], in assay [1] (25 μM, 24 hours), the inhibition of growth result is listed as “minor, yet insignificant inhibition of growth”. The “decrease in proliferation compared to control and vehicle treated cells” value in assay [1] (after 72 hours, all cell lines tested (e.g. CHO, N2a and SH-SY5Y)) is reported as 70-75%. In addition, the “reversibility of antiproliferative effect” value in assay [1] (washing treated cells with PBS and fresh growth media) is recorded as “readily reversed”. Also, the “reduction of secreted Aβ40” value in assay [2] (CHO-7W, 30 μM overnight) is given as “about 48.5±0.91%”. Moreover, the “reduction of secreted levels of Aβ40” value in assay [2] (conditioned media from either CHO-7W or CHO-CAB cells) is reported as 44.2±3.4%.
